Read-outs that look alike come from different tables or passages of the source. One block for each compound: values may come before it.
Tests used:
Kir4.1 = biological target: T1, Kir4.1 (Homo sapiens, UniProt P78508); experiment: Whole-cell patch clamp, Kir4.1 currents in transfected CHO-K1 cells; format: cell-based; conditions: for inhibition at 0.5 µM: CHO-K1, 0.5 μM; for inhibition at 1 µM: CHO-K1, 1 μM; for inhibition at 10 µM: CHO-K1, 10 μM
T1 construct: host or cells: CHO-K1
T1 sequence (P78508 1-379): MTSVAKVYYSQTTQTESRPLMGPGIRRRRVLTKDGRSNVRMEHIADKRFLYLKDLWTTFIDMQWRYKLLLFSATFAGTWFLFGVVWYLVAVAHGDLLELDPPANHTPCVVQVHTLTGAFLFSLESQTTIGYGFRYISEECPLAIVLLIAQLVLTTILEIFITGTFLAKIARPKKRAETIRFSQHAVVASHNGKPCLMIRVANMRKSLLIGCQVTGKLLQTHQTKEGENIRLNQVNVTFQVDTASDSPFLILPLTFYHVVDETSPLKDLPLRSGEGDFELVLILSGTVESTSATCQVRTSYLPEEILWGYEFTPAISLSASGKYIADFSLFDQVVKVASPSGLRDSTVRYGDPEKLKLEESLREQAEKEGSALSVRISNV
Description: Plasmids encoding WT human potassium channels Kir1.1, Kir2.1, Kir2.2, Kir4.1, and Kir4.2 were obtained from the Beijing Genomics Institute. All point mutations were constructed using the QuickChange II Site‐Directed Mutagenesis Kit (Stratagene) and subsequently verified by sequencing.
CHO‐K1 cells were maintained in DMEM/F12 growth medium containing 10% fetal bovine serum. Plasmids encoding the target genes (3600 ng) and enhanced green fluorescent protein (400 ng) were cotransfected into cells using Lipofectamine 2000 (Invitrogen) in accordance with the manufacturer's instructions. Cells were seeded onto poly‐d‐lysine (PDL)‐coated glass coverslips 1 h prior to electrophysiological recordings. All cells were cultured under standard conditions of 5% CO2 at 37 °C.
Whole‐cell patch‐clamp recordings were obtained either in transiently transfected CHO‐K1 cells or in primary cultured astrocytes at room temperature using standard patch‐clamp techniques with an Axopatch‐700B amplifier (Axon Instruments). The signals were filtered at 2 kHz and sampled at 20 kHz using the Digidata 1440A interface (Axon Instruments). The resistance of borosilicate glass pipettes was typically 2–4 MΩ when filled with the internal solution. Drug application was facilitated using a BPS perfusion system (ALA Scientific Instruments). Macroscopic currents generated by expressed potassium channels were recorded under the voltage‐clamp conditions with an internal pipette solution composed of (in mM): 140 KCl, 5 NaCl, 1 CaCl2, 1 MgCl2, 10 HEPES, and 10 EGTA, pH 7.2 adjusted with KOH. The external solution contained (in mM): 140 NaCl, 5 KCl, 2 CaCl2, 1 MgCl2, 10 glucose, and 10 HEPES, pH 7.4 adjusted with NaOH. Currents were elicited with a hyperpolarized voltage at −120 mV from the holding potential of −80 mV, followed by a ramp voltage depolarizing to +50 mV. Astrocytic resting membrane potentials were recorded under current‐clamp conditions (I = 0 pA) using standard internal and external solutions, determined immediately after achieving whole‐cell mode.

[1] = test system: MDA-MB-468 breast cancer cells; experiment: Cytotoxicity test (CCK-8); format: cell-based; conditions: read-out: IC50 ± SD (μM) for MDA-MB-468 Inhibition
Description: Cytotoxicity of all the tested compounds was determined using the cell counting kit‐8 (CCK‐8) assay kit (Beyotime, Shanghai, China). Briefly, MDA‐MB‐468 was cultured in L15 medium and plated in 96‐well plates at a density of 12,000 cells per well for 24 h at 37 °C in a 5% CO2 incubator. The tested compounds were dissolved in DMSO and diluted with culture medium (DMSO final concentration < 0.4%). Then the cells were treated with compounds (0.41, 1.23, 3.70, 11.11, 33.33, 100.00 µM) for 48 h. After treatments, removal of the supernatant liquor, 100 µL of new media diluted CCK‐8 solution (10% CCK‐8) was added into each well and incubated at 37 °C for 2 h. The absorbance of the mixture was directly measured at 450 nm. The results are presented as a percentage of the control.

[2] = +50 mV, read-out: Kir4.1 Inhibition ± SD (%) at 1 μM, +50 mV
[3] = -120 mV, read-out: Kir4.1 Inhibition ± SD (%) at 1 μM, -120 mV
[4] = +50 mV, read-out: Kir4.1 Inhibition ± SD (%) at 10 μM, +50 mV
[5] = -120 mV, read-out: Kir4.1 Inhibition ± SD (%) at 10 μM, -120 mV
[6] = Homo sapiens, MDA-MB-468, MDA-MB-468 breast cancer cells

Structure (SMILES): c1ccc2c(c1)oc1ccc(Nc3cncc(NCCCN4CCOCC4)c3)cc12 [JX3221, N^3-(dibenzo[b,d]furan-2-yl)-N^5-(3-morpholinopropyl)pyridine-3,5-diamine]
inhibition at 1 µM (Kir4.1; [2]): -2.41 ± 3.2%
inhibition at 1 µM (Kir4.1; [3]): -4.84 ± 3.28%
inhibition at 10 µM (Kir4.1; [4]): 96.6 ± 1.14%
inhibition at 10 µM (Kir4.1; [5]): 90.4 ± 5.72%
IC50 [1, 6]: 21.2 ± 1.06 µM

Structure (SMILES): c1ccc2c(c1)oc1ccc(Nc3cc(NCCCN4CCOCC4)ncn3)cc12 [JX3222, N^4-(dibenzo[b,d]furan-2-yl)-N^6-(3-morpholinopropyl)pyrimidine-4,6-diamine]
inhibition at 1 µM (Kir4.1; [2]): 5.55 ± 2.74%
inhibition at 1 µM (Kir4.1; [3]): -0.94 ± 6.65%
inhibition at 10 µM (Kir4.1; [4]): 87.3 ± 6.4%
inhibition at 10 µM (Kir4.1; [5]): 71.1 ± 6.03%
IC50 [1, 6]: 44 ± 1.48 µM

Structure (SMILES): c1ccc2c(c1)oc1ccc(Nc3cnc(NCCCN4CCOCC4)cn3)cc12 [JX3225, N^2-(dibenzo[b,d]furan-2-yl)-N^5-(3-morpholinopropyl)pyrazine-2,5-diamine]
inhibition at 1 µM (Kir4.1; [2]): 3.73 ± 5.09%
inhibition at 1 µM (Kir4.1; [3]): 8.36 ± 3.94%
inhibition at 10 µM (Kir4.1; [4]): 96.9 ± 1.28%
inhibition at 10 µM (Kir4.1; [5]): 94.3 ± 2.6%
IC50 [1, 6]: 31.6 ± 5.27 µM

Structure (SMILES): c1ccc2c(c1)oc1ccc(N[C@H]3CC[C@@H](NCCCN4CCOCC4)CC3)cc12 [JX3226, (1s,4s)-N^1-(dibenzo[b,d]furan-2-yl)-N^4-(3-morpholinopropyl)cyclohexane-1,4-diamine]
Kir4.1 Inhibition ± SD (%) at 1 μM, +50 mV (Kir4.1; +50 mV): 3.35 ± 4.46%
Kir4.1 Inhibition ± SD (%) at 1 μM, -120 mV (Kir4.1; -120 mV): 6.91 ± 6.13%
Kir4.1 Inhibition ± SD (%) at 10 μM, +50 mV (Kir4.1; +50 mV): 94.03 ± 1.98%
Kir4.1 Inhibition ± SD (%) at 10 μM, -120 mV (Kir4.1; -120 mV): 86.98 ± 0.69%
IC50 ([1]; MDA-MB-468 breast cancer cells): 19.5 ± 1.64 µM

Structure (SMILES): c1ccc2c(c1)oc1ccc(NC34C[C@@H]5C[C@@H](CC(NCCCN6CCOCC6)(C5)C3)C4)cc12 [JX3227, (1s,3r,5R,7S)-N^1-(dibenzo[b,d]furan-2-yl)-N^3-(3-morpholinopropyl)adamantane-1,3-diamine]
Kir4.1 Inhibition ± SD (%) at 1 μM, +50 mV (Kir4.1; +50 mV): 9.02 ± 5.70%
Kir4.1 Inhibition ± SD (%) at 1 μM, -120 mV (Kir4.1; -120 mV): 7.11 ± 1.17%
Kir4.1 Inhibition ± SD (%) at 10 μM, +50 mV (Kir4.1; +50 mV): 88.04 ± 4.11%
Kir4.1 Inhibition ± SD (%) at 10 μM, -120 mV (Kir4.1; -120 mV): 64.42 ± 3.05%
IC50 ([1]; MDA-MB-468 breast cancer cells): > 50 µM

Structure (SMILES): c1ccc2c(c1)oc1ccc(NC3CC4(CCN(CCCN5CCOCC5)CC4)C3)cc12 [JX3228, N-(dibenzo[b,d]furan-2-yl)-7-(3-morpholinopropyl)-7-azaspiro[3.5]nonan-2-amine]
inhibition at 1 µM (Kir4.1; [2]): 18.4 ± 3.79%
inhibition at 1 µM (Kir4.1; [3]): 0.88 ± 2.32%
inhibition at 10 µM (Kir4.1; [4]): 73 ± 3.72%
inhibition at 10 µM (Kir4.1; [5]): 17.1 ± 6.3%
IC50 [1, 6]: 11.2 ± 0.74 µM

Structure (SMILES): c1ccc2c(c1)oc1ccc(N3CCC4(CCN(CCCN5CCOCC5)CC4)CC3)cc12 [JX3230, 4-(3-(9-(dibenzo[b,d]furan-2-yl)-3,9-diazaspiro[5.5]undecan-3-yl)propyl)morpholine]
inhibition at 10 µM (Kir4.1; [4]): 63.3 ± 6.48%
inhibition at 10 µM (Kir4.1; [5]): 15.6 ± 0.73%
IC50 [1, 6]: > 50 µM

Structure (SMILES): c1ccc2c(c1)oc1ccc(Nc3ccnc(OCCCN4CCOCC4)n3)cc12 [JX3231, N-(dibenzo[b,d]furan-2-yl)-2-(3-morpholinopropoxy)pyrimidin-4-amine]
inhibition at 1 µM (Kir4.1; [2]): 7.39 ± 3.45%
inhibition at 1 µM (Kir4.1; [3]): 4.14 ± 5.52%
inhibition at 10 µM (Kir4.1; [4]): 96.3 ± 1.23%
inhibition at 10 µM (Kir4.1; [5]): 90.5 ± 2.35%
IC50 [1, 6]: 19.7 ± 0.5 µM

Structure (SMILES): CN(CCCN1CCOCC1)c1nccc(Nc2ccc3oc4ccccc4c3c2)n1 [JX3232, N^4-(dibenzo[b,d]furan-2-yl)-N^2-methyl-N^2-(3-morpholinopropyl)pyrimidine-2,4-diamine]
inhibition at 1 µM (Kir4.1; [2]): 6.81 ± 4.5%
inhibition at 1 µM (Kir4.1; [3]): -2.25 ± 0.47%
inhibition at 10 µM (Kir4.1; [4]): 96.94 ± 0.69%
inhibition at 10 µM (Kir4.1; [5]): 93.2 ± 1.48%
IC50 [1, 6]: 6.77 ± 0.68 µM

Second part, led by results:

inhibition at 0.5 µM (Kir4.1; +50 mV, read-out: Kir4.1 Inhibition ± SD (%) at 0.5 μM, +50 mV): 49.6 ± 6.47%
inhibition at 0.5 µM (Kir4.1; -120 mV, read-out: Kir4.1 Inhibition ± SD (%) at 0.5 μM, -120 mV): 40.2 ± 4.35%
inhibition at 1 µM (Kir4.1; [2]): 86.1 ± 3.36%
inhibition at 1 µM (Kir4.1; [3]): 78.7 ± 8.16%
inhibition at 10 µM (Kir4.1; [4]): 97.44 ± 0.6%
inhibition at 10 µM (Kir4.1; [5]): 92.6 ± 5.66%
Structure (SMILES): c1ccc2c(c1)oc1ccc(Nc3ccnc(NCCCN4CCOCC4)c3)cc12 [JX3219, N^4-(dibenzo[b,d]furan-2-yl)-N^2-(3-morpholinopropyl)pyridine-2,4-diamine]
IC50 [1, 6]: 8.74 ± 0.36 µM

inhibition at 10 µM (Kir4.1; [4]): 2.61 ± 1.87%
inhibition at 10 µM (Kir4.1; [5]): 3.98 ± 1.6%
Structure (SMILES): c1cc(NCCCN2CCOCC2)nc(Nc2ccc3oc4ccccc4c3c2)c1 [JX3220, N^2-(dibenzo[b,d]furan-2-yl)-N^6-(3-morpholinopropyl)pyridine-2,6-diamine]
IC50 [1, 6]: 8.74 ± 0.36 µM

Kir4.1 Inhibition ± SD (%) at 10 μM, +50 mV (Kir4.1; +50 mV, 10 µM): 7.01 ± 4.11%
Kir4.1 Inhibition ± SD (%) at 10 μM, -120 mV (Kir4.1; -120 mV): 6.62 ± 0.29%
Structure (SMILES): c1ccc2c(c1)oc1ccc(Nc3cncc(NCCCN4CCOCC4)n3)cc12 [JX3223, N^2-(dibenzo[b,d]furan-2-yl)-N^6-(3-morpholinopropyl)pyrazine-2,6-diamine]
IC50 [1, 6]: 23 ± 3.41 µM

Kir4.1 Inhibition ± SD (%) at 10 μM, +50 mV (Kir4.1; +50 mV, 10 µM): 96.66 ± 1.05%
Kir4.1 Inhibition ± SD (%) at 10 μM, -120 mV (Kir4.1; -120 mV): 87.90 ± 2.73%
inhibition at 1 µM (Kir4.1; [2]): 29.1 ± 11.8%
inhibition at 1 µM (Kir4.1; [3]): 11.3 ± 5.07%
Structure (SMILES): c1ccc2c(c1)oc1ccc(Nc3cncc(NCCCN4CCOCC4)n3)cc12 [JX3224, N^2-(dibenzo[b,d]furan-2-yl)-N^6-(3-morpholinopropyl)pyrazine-2,6-diamine]
IC50 ([1]; MDA-MB-468 breast cancer cells): 21.6 ± 0.8 µM

inhibition at 10 µM (Kir4.1; [4]): 26.8 ± 9.64%
inhibition at 10 µM (Kir4.1; [5]): 4.9 ± 7.34%
Structure (SMILES): c1ccc2c(c1)oc1ccc(N3CCC4(CC3)CN(CCCN3CCOCC3)C4)cc12 [JX3229, 4-(3-(7-(dibenzo[b,d]furan-2-yl)-2,7-diazaspiro[3.5]nonan-2-yl)propyl)morpholine]
IC50 [1, 6]: 29.5 ± 1.09 µM

inhibition at 1 µM (Kir4.1; [2]): 4.34 ± 8.43%
inhibition at 1 µM (Kir4.1; [3]): 2.58 ± 3.95%
inhibition at 10 µM (Kir4.1; [4]): 92.2 ± 1.15%
inhibition at 10 µM (Kir4.1; [5]): 97.2 ± 1.69%
Structure (SMILES): CC(CNc1nccc(Nc2ccc3oc4ccccc4c3c2)n1)CN1CCOCC1 (centres unmarked) [JX3233, N^4-(dibenzo[b,d]furan-2-yl)-N^2-(2-methyl-3-morpholinopropyl)pyrimidine-2,4-diamine]
IC50 [1, 6]: 10.44 ± 0.01 µM

inhibition at 1 µM (Kir4.1; [2]): 11.2 ± 5.26%
inhibition at 1 µM (Kir4.1; [3]): 5.91 ± 6.31%
inhibition at 10 µM (Kir4.1; [4]): 94.83 ± 0.75%
inhibition at 10 µM (Kir4.1; [5]): 88.4 ± 2.42%
Structure (SMILES): OC(CNc1nccc(Nc2ccc3oc4ccccc4c3c2)n1)CN1CCOCC1 (centres unmarked) [JX3234, 1-((4-(dibenzo[b,d]furan-2-ylamino)pyrimidin-2-yl)amino)-3-morpholinopropan-2-ol]
IC50 [1, 6]: 17.1 ± 0.83 µM
